Results reported in patent publication US5525626A (priority 1989, dated 1996).

How the values were obtained:
Assay in all cases: 3H-thymidine assay
Format in all cases: cell-based
[1] = system: Tp 242 MG glioblastoma cells; conditions: Homo sapiens
[2] = system: Tp 483 MG glioblastoma cells
[3] = system: Tp 410 N neuroblastoma cells; conditions: Homo sapiens, Neuroblastoma cell
Daudi leukemic cells = conditions: Homo sapiens
At T 20 = conditions: Mus musculus
Experimental: (§1) The cell lines were cultivated as indicated in Example 1.
(§2) The antiproliferative effect of the 1,2-benzopyrone derivatives according to the invention on the tumor cell lines in each case was shown with the help of the ^3 H-thymidine insertion and with reference to growth curves.
(§3) In a 24-well-plate, in each case 10^4 cells of the line to be investigated were inoculated per well. Approximately 48 hours later the cells were half-confluent; the medium was then changed and replaced by a medium containing the active substance in question (cf Table 3). After a further 48 hours 0.25 μCi ^3 H-thymidine (Ammersham) was added to each well and the cells were incubated for a further 24 hours. Subsequently the cultures were washed twice with ice-cold PBS and the high-molecular-weight ^3 H-radioactivity was precipitated with 5% trichloroacetic acid for one hour at 4° C. After the washing of the cells in PBS the ^3 H-radioactivity was solubilized with 0.3M NaOH and measured in the counter. The growth-inhibition was determined by comparing the thymidine insertion of the cells treated with active substance with untreated cells.
(§4) The active substance concentration in each case was so chosen that ^3 H-thymidine insertion was 50% inhibited. The active substance concentrations used under this aspect for the active substances and cell lines in each case are given in table 4 below in μM/ml, […]

CAKI-1 cells = conditions: Homo sapiens
Experimental: as §1, §2, §3, §4

K-562 leukemic cells = conditions: Homo sapiens
Experimental: as §1, §2, §3, §4

[4] = system: MCF-7 breast cancer cells; conditions: Homo sapiens
Experimental: as §1, §2, §3, §4

[5] = system: Z-R-75-1 breast cancer cells; conditions: Homo sapiens
A-375 melanoma cells = conditions: Homo sapiens
[6] = read-out: 3H-thymidine insertion (%) of control
[7] = read-out: active substance concentration at which 3H-thymidine insertion was 50% inhibited
[8] = read-out: 3H-thymidine tracer (%) of control
[9] = AtT20, read-out: 3H-thymidine tracer (%) of control
[10] = CAKI-1, read-out: 3H-thymidine tracer (%) of control
[11] = K562, read-out: 3H-thymidine tracer (%) of control
[12] = MCF7, read-out: 3H-thymidine tracer (%) of control
[13] = ZR-75-1, read-out: 3H-thymidine tracer (%) of control
[14] = A-375, read-out: 3H-thymidine tracer (%) of control

## O=c1ccc2cc(O[C@@H]3O[C@H](CO)[C@@H](O)[C@H](O)[C@H]3O)c(O)cc2o1 [Esculin, 6-beta-D-glucopyranosyloxy-7-hydroxy-1,2-benzopyrone]
[1]; [6]
  activity at 1 µM: 100%
  activity at 2 µM: 98%
  activity at 4 µM: 95%
  activity at 8 µM: 81%
  activity at 16 µM: 73%
  activity at 25 µM: 68%
  activity at 50 µM: 65%
  activity at 100 µM: 61%
  activity at 250 µM: 53%
  activity at 500 µM: 49%
[1]; [7]
  IC50: 500 µM
[2]; [6]
  activity at 1 µM: 99%
  activity at 2 µM: 97%
  activity at 4 µM: 89%
  activity at 8 µM: 83%
  activity at 16 µM: 74%
  activity at 25 µM: 66%
  activity at 50 µM: 54%
  activity at 100 µM: 51%
  activity at 250 µM: 48%
  activity at 500 µM: 45%
[2]; [7]
  IC50: 100 µM
[3]; [6]
  activity at 1 µM: 100%
  activity at 2 µM: 96%
  activity at 4 µM: 85%
  activity at 8 µM: 76%
  activity at 16 µM: 69%
  activity at 25 µM: 62%
  activity at 50 µM: 54%
  activity at 100 µM: 43%
  activity at 250 µM: 38%
  activity at 500 µM: 30%
[3]; [7]
  IC50: 75 µM
Daudi leukemic cells; [8]
  activity at 1 µM: 100%
  activity at 2 µM: 98%
  activity at 4 µM: 93%
  activity at 8 µM: 87%
  activity at 16 µM: 80%
  activity at 25 µM: 71%
  activity at 50 µM: 69%
  activity at 100 µM: 52%
  activity at 250 µM: 48%
  activity at 500 µM: 44%
Daudi leukemic cells; [7]
  IC50: 100 µM
At T 20; [9]
  activity at 1 µM: 100%
  activity at 2 µM: 94%
  activity at 4 µM: 89%
  activity at 8 µM: 83%
  activity at 16 µM: 72%
  activity at 25 µM: 69%
  activity at 50 µM: 64%
  activity at 100 µM: 58%
  activity at 250 µM: 49%
  activity at 500 µM: 44%
At T 20; AtT20, read-out: active substance concentration at which 3H-thymidine insertion was 50% inhibited
  IC50: 250 µM
CAKI-1 cells; [10]
  activity at 1 µM: 100%
  activity at 2 µM: 94%
  activity at 4 µM: 92%
  activity at 8 µM: 83%
  activity at 16 µM: 78%
  activity at 25 µM: 74%
  activity at 50 µM: 65%
  activity at 100 µM: 60%
  activity at 150 µM: 53%
  activity at 500 µM: 47%
CAKI-1 cells; CAKI-1, read-out: active substance concentration at which 3H-thymidine insertion was 50% inhibited
  IC50: 375 µM
K-562 leukemic cells; [11]
  activity at 1 µM: 100%
  activity at 2 µM: 100%
  activity at 4 µM: 96%
  activity at 8 µM: 88%
  activity at 16 µM: 81%
  activity at 25 µM: 72%
  activity at 50 µM: 70%
  activity at 100 µM: 58%
  activity at 250 µM: 51%
  activity at 500 µM: 40%
K-562 leukemic cells; K562, read-out: active substance concentration at which 3H-thymidine insertion was 50% inhibited
  IC50: 250 µM
[4]; [12]
  activity at 1 µM: 99%
  activity at 2 µM: 91%
  activity at 4 µM: 88%
  activity at 8 µM: 80%
  activity at 16 µM: 71%
  activity at 25 µM: 69%
  activity at 50 µM: 62%
  activity at 100 µM: 51%
  activity at 250 µM: 49%
  activity at 500 µM: 42%
[4]; MCF7, read-out: active substance concentration at which 3H-thymidine insertion was 50% inhibited
  IC50: > 100 µM
[5]; [13]
  activity at 1 µM: 100%
  activity at 2 µM: 97%
  activity at 4 µM: 89%
  activity at 8 µM: 85%
  activity at 16 µM: 75%
  activity at 25 µM: 72%
  activity at 50 µM: 64%
  activity at 100 µM: 56%
  activity at 250 µM: 51%
  activity at 500 µM: 47%
[5]; ZR-75-1, read-out: active substance concentration at which 3H-thymidine insertion was 50% inhibited
  IC50: 250 µM
A-375 melanoma cells; [14]
  activity at 1 µM: 100%
  activity at 2 µM: 96%
  activity at 4 µM: 93%
  activity at 8 µM: 87%
  activity at 16 µM: 82%
  activity at 25 µM: 78%
  activity at 50 µM: 71%
  activity at 100 µM: 64%
  activity at 250 µM: 60%
  activity at 500 µM: 57%
A-375 melanoma cells; A-375, read-out: active substance concentration at which 3H-thymidine insertion was 50% inhibited
  IC50: > 500 µM
